Consider five compounds from PMC5225203, “Multiparameter toxicity assessment of novel DOPO-derived organophosphorus flame retardants” (Archives of Toxicology, 2016).

Like-named read-outs stand apart in the source and are kept apart here.

Series [1] relates to Desmodesmus subspicatus. In kind it is cell-based. As to the method:
Suppl. Fig. 6. Freshwater microalgae toxicity test. Acute toxicity was tested by assessing algal growth inhibition applying Desmodesmus subspicatus according to OECD guideline number 201. Growth inhibition tests were performed using an initial cell density of 5 x 10^3 cells/ml (= OD680 of 0.005). The cells were maintained in 250 mL flasks containing 100 mL of sterile OECD algal medium at 22°C at 130 rpm illuminated with 3000 lux. Cell density was detected photospectrometrically at λ680 nm in 24 h intervals in algae cultures treated with the respective flame retardants. Experiments were performed by BMG Engineering Ltd., […]
(1 picture or pasted object on this page, not shown here)

In series [2] the test system is neuronal and non-neuronal cell models. Briefly: Synopsis of all in vitro assays applied in this work. In kind it is cell-based, human. The settings on record: for cytotoxic effects: at concentrations higher than 100 µM; for IC50: Homo sapiens, read-out: average IC50 values; for concentration with cell type-independent cytotoxic properties: all cellular in vitro models. As to the method:
IC50 values are defined by the concentration of the flame retardant investigated where the response was reduced by half. Log-transformed flame retardant concentration values and the respective response data were fitted to a four-parameter logistic equation: y=A+B-A/1+(x/C)^D The percent inhibition response data are represented by y; B = maximum of y; A = minimum of y; x = flame retardant concentration; C = IC50; D = Hill slope factor. The IC50 values were calculated from these sigmoidal dose–response curves utilizing Prism 5.0 (GraphPad, San Diego, CA, USA) software.

The test system of series [3] is Daphnia magna. Put plainly: Acute daphnia immobilization test (OECD guideline 202). The class given is in vivo. The settings on record: for daphnia viability: at concentrations ≤400 µM (abstract); for Immobile Daphnia after 48 h: 20 individuals. As to the method:
Loading Num ber of I m m obile rate Replicat e individuals Da phnia
(mg/l) per test af t er 48 h
Suppl. Fig. 5. Freshwater microcrustacean toxicity test. Acute toxicity was determined in Daphnia magna according to the standardized OECD guidelines number 202 test, performed by BMG Engineering Ltd., Schlieren, Switzerland. Daphnia were cultured in aerated Elendt M4 medium at a constant temperature of 21°C under a 16:8 light/dark photoperiod. The water soluble fraction of the indicated concentrations of flame retardants were added for 48 h.
Mortality was assessed by the detection of movement analysis. Immobile Daphnia were defined as those animals displaying no movement within a 15 s period following shaking of […]

The subject of series [4] is human alveolar epithelial cell line A549. Briefly: Acute cytotoxicity, MTS reduction, A549. In kind it is cell-based. The settings on record: A549, 48 h; for cell damage (viability, MTS reduction): concentrations as high as 400 µM; for concentration producing acute toxicity: MTS. As to the method:
The human alveolar epithelial cell line A549 (ATCC: CCL-185) was grown in Roswell Park Memorial Institute (RPMI-1640) medium (Sigma-Aldrich) supplemented with 10 % FCS (Lonza), 2 mM L-glutamine (Gibco), 50 µg/mL penicillin (Gibco), 50 µg/mL streptomycin (Gibco), and 100 µg/mL neomycin (Gibco) at 37 °C in a humidified atmosphere containing 5 % CO2 (hereafter referred to as complete cell culture medium and standard growth conditions, respectively). Cells were subcultured at approximately 80–90 % confluency using 0.5 % trypsin–EDTA (Sigma-Aldrich). For viability assessment, 1.5 × 10^4 cells per well were seeded in 200 µL complete cell culture medium in a 96-well plate and grown overnight under standard growth conditions, after which the cells were treated for 48 h with 200 µL standard growth medium per well containing increasing concentrations of the flame retardants or positive control agent CdSO4. CellTiter96® AQueous One Solution (Promega) containing MTS (3-(4,5-dimethylthiazol-2-yl)-5-(3-carboxymethoxy-phenyl)-2-(4-sulfophenyl)-2H) as a water-soluble tetrazolium compound was used according to the manufacturer’s protocol. Absorption was detected at 490 nm.

Series [5] concerns ARE-dependent luciferase expression in KeratinoSens cells. Put plainly: KeratinoSens skin sensitization assay. The class given is cell-based. The following applies: for skin sensitizer classification / ARE-dependent luciferase expression: KeratinoSens; for ARE-dependent luciferase expression / cell viability (PrestoBlue) in KeratinoSens cells: 48 h. As to the method: Generation of the stable KeratinoSens™ cell line was previously described in detail (Emter et al. [2010]). KeratinoSens™ cells were maintained in DMEM containing glutamax (Gibco/Invitrogen), 9 % FCS, and 0.5 mg/mL G418. For the experiments, KeratinoSens™ cells were seeded onto 96-well plates at a density of 10,000 cells per well in 125 µL medium without G418. After 24 h, the medium was replaced with 200 µL DMEM containing 1 % FCS and the test compounds. After a 2-day incubation period at 37 °C in an atmosphere containing 5 % CO2, the cells were washed once with PBS and a resazurin reduction assay (PrestoBlue®) was carried out in order to compare the viability of the differently treated groups. Fluorescence intensity was measured at 550 nmex and 590 nmem. After another washing step with PBS, cell lysis was performed using 20 µL/well passive lysis buffer (Promega) for 20 min at room temperature. Luciferase activity was measured by applying 50 µL luciferase substrate automatically to each well and detecting the resulting luminescence. Compounds were considered as skin sensitizers when a statistically significant induction of luciferase activity above a defined threshold of ≥1.5 in the absence of impaired cell viability was observed (Emter et al. [2010]; Natsch et al. [2011]).

The mark [6] stands for this setting: at concentrations ≤400 µM (abstract).
[7] abbreviates: highest tested concentrations, water-soluble fraction of 1000 mg/L (approximately 2 mM).
[8] abbreviates: loading rate 10 mg/l, replicate A.
[9] abbreviates: loading rate 10 mg/l, replicate B.
Where [10] appears, read: loading rate 100 mg/l, replicate A.
Setting [11] is: loading rate 100 mg/l, replicate B.
Where [12] appears, read: loading rate 1000 mg/l, replicate A.
The mark [13] stands for this setting: loading rate 1000 mg/l, replicate B.

`O=P1(NCCNP2(=O)Oc3ccccc3-c3ccccc32)Oc2ccccc2-c2ccccc21` (centres unmarked) [EDA-DOPO, 6,6′-(ethane-1,2-diylbis(azanediyl))bis(6H-dibenzo[c,e][1,2]oxaphosphinine-6-oxide)]: the algae growth entry in series [1] (setting [6]) was “nor did they affect algae growth or daphnia viability”; in series [1] (setting [7]) it was “no effect”. For the same compound, in series [2] (all assays utilized), the harmful effects result was “no harmful effects”. Further, the cytotoxic effects result in series [2] is “no comparable effects”. The daphnia viability entry in series [3] is reported as “nor did they affect algae growth or daphnia viability”. Besides, the “Immobile Daphnia after 48 h” value is 0% in series [3] (setting [8]); 0% in series [3] (setting [9]); 0% in series [3] (setting [10]); 0% in series [3] (setting [11]); 5% in series [3] (setting [12]); 10% in series [3] (setting [13]). For the same compound, the “cell damage (viability, MTS reduction)” value in series [4] is on record as “no signs of cell damage”. Also, the skin sensitizer classification entry in series [5] is recorded as “No specific effects”. Besides, the ARE-dependent luciferase expression entry in series [5] is listed as “neither induced luciferase activity”.

As to `O=P1(OCCOP2(=O)Oc3ccccc3-c3ccccc32)Oc2ccccc2-c2ccccc21` (centres unmarked) [EG-DOPO, 6,6′-(ethane-1,2-diylbis(oxy))bis(6H-dibenzo[c,e][1,2]oxaphosphinine-6-oxide)], the algae growth result in series [1] (setting [7]) is on record as “inhibited algae growth”. Moreover, the IC50 in series [2] was in the range of 20 to 100 µM. In addition, in series [2], the “concentration with cell type-independent cytotoxic properties” value is over 10 µM. In addition, the “Immobile Daphnia after 48 h” value in series [3] (setting [8]) is listed as 0%; in series [3] (setting [9]) it was 0%; in series [3] (setting [10]) it was 10%; in series [3] (setting [11]), 0%; in series [3] (setting [12]), 5%; in series [3] (setting [13]) it was 10%. The “concentration producing acute toxicity” value in series [4] is recorded as over 20 µM. Besides, the “cell viability (PrestoBlue) in KeratinoSens cells” value (“cell viability (PrestoBlue)” below) in series [5] is “decline in cell viability”. Besides, the skin sensitizer classification result in series [5] was “No specific effects”. The ARE-dependent luciferase expression result in series [5] is reported as “increase in ARE-dependent luciferase expression”.

For the compound `Brc1ccc(Oc2cc(Br)c(Br)cc2Br)c(Br)c1` [PBDE-99, reference compound], the “concentration with distinct neuro-selective cytotoxicity” value in series [2] (abstract) was at least 10 µM. The “concentration detrimentally influencing central and peripheral neurons” value in series [2] (central and peripheral neurons) is listed as over 10 µM. Also, in series [2] (macrophages, lung epithelial cells, keratinocytes, concentrations as high as 400 µM), the “toxicity in non-neuronal models” value was “no significant toxicity”. Also, the “cell damage (viability, MTS reduction)” value in series [4] is listed as “no signs of cell damage”. Further, the “cell viability (PrestoBlue)” value in series [5] is listed as “absence of significant cell death”. For the same compound, the “increase in ARE-dependent luciferase expression” value in series [5] (at a concentration of 3 µM, in the absence of significant cell death) was “ca. twofold”.

Consider `O=[PH]1Oc2ccccc2-c2ccccc21` (centres unmarked) [DOPO, 9,10-dihydro-9-oxa-10-phosphaphenanthrene-10-oxide], for which the algae growth result in series [1] (setting [6]) is “nor did they affect algae growth or daphnia viability”. Further, the cytotoxic effects entry in series [2] is given as “no comparable effects”. The “influence on all parameters investigated” value in series [2] (concentrations up to 400 µM) was “no influence”. Moreover, the daphnia viability entry in series [3] was “nor did they affect algae growth or daphnia viability”. Besides, the “cell damage (viability, MTS reduction)” value in series [4] is “no signs of cell damage”. Besides, in series [5], the skin sensitizer classification result is given as “No specific effects” and the ARE-dependent luciferase expression result is “neither induced luciferase activity”.

With `O=P1(NCCOP2(=O)Oc3ccccc3-c3ccccc32)Oc2ccccc2-c2ccccc21` (centres unmarked) [ETA-DOPO, 6-(2-((6-oxido-6H-dibenzo[c,e][1,2]oxaphosphinin-6-yl)amino)ethoxy)-6H-dibenzo[c,e][1,2]oxaphosphinine 6-oxide], the algae growth entry in series [1] (setting [7]) is recorded as “no effect”. The IC50 in series [2] lay in the range of 20 to 100 µM. Besides, in series [2], the “concentration with cell type-independent cytotoxic properties” value is recorded as over 10 µM. Also, the “Immobile Daphnia after 48 h” value in series [3] (setting [8]) is on record as 5%; in series [3] (setting [9]), 0%; in series [3] (setting [10]) it was 0%; in series [3] (setting [11]) it was 0%; in series [3] (setting [12]) it was 5%; in series [3] (setting [13]), 0%. Further, the “concentration producing acute toxicity” value in series [4] was over 20 µM. For the same compound, the “cell viability (PrestoBlue)” value in series [5] is “decline in cell viability”. The skin sensitizer classification result in series [5] was “No specific effects”. The ARE-dependent luciferase expression result in series [5] is “increase in ARE-dependent luciferase expression”.
